Active and inactive are the calls of the source. The calls are words filed in the database; no cut-off is given here.
Key:
Type in all cases: functional
UO-31 = test: Growth inhibition of human UO31 cells at 10 uM after 48 hrs by SRB assay relative to control; details: UO-31, 48 h, read-out: GI
HL-60 = test: Growth inhibition of human HL60 cells at 10 uM after 48 hrs by SRB assay relative to control
SF-268 = test: Growth inhibition of human SF268 cells at 10 uM after 48 hrs by SRB assay relative to control; details: SF-268, 48 h, read-out: GI
786-0 = test: Growth inhibition of human 786-0 cells at 10 uM after 48 hrs by SRB assay relative to control
OVCAR-8 = test: Growth inhibition of human OVCAR8 cells at 10 uM after 48 hrs by SRB assay relative to control
NCI-H23 = test: Growth inhibition of human NCI-H23 cells at 10 uM after 48 hrs by SRB assay relative to control; details: NCI-H23, 48 h, read-out: GI
K562 = test: Growth inhibition of human K562 cells at 10 uM after 48 hrs by SRB assay relative to control; details: K562, 48 h, read-out: GI
OVCAR-4 = test: Growth inhibition of human OVCAR4 cells at 10 uM after 48 hrs by SRB assay relative to control; details: for inhibition of growth at 10 µM: OVCAR-4, 48 h, read-out: GI
NCI/ADR-RES = test: Growth inhibition of human NCI/ADR-RES cells at 10 uM after 48 hrs by SRB assay relative to control; details: for inhibition of growth at 10 µM: read-out: GI
HOP-62 = test: Growth inhibition of human HOP62 cells at 10 uM after 48 hrs by SRB assay relative to control; details: for inhibition of growth at 10 µM: HOP-62, 48 h, read-out: GI
SR = test: Growth inhibition of human SR cells at 10 uM after 48 hrs by SRB assay relative to control; details: read-out: GI
SK-MEL-5 = test: Growth inhibition of human SK-MEL-5 cells at 10 uM after 48 hrs by SRB assay relative to control
CCRF-CEM = test: Growth inhibition of human CCRF-CEM cells at 10 uM after 48 hrs by SRB assay relative to control; details: read-out: GI
HOP-92 = test: Growth inhibition of human HOP92 cells at 10 uM after 48 hrs by SRB assay relative to control; details: HOP-92, 48 h, read-out: GI
HT-29 = test: Growth inhibition of human HT-29 cells at 10 uM after 48 hrs by SRB assay relative to control
SK-OV-3 = test: Growth inhibition of human SKOV3 cells at 10 uM after 48 hrs by SRB assay relative to control; details: for inhibition of growth at 10 µM: SK-OV-3, 48 h, read-out: GI
KM12 = test: Growth inhibition of human KM12 cells at 10 uM after 48 hrs by SRB assay relative to control; details: for inhibition of growth at 10 µM: KM12, 48 h, read-out: GI
MOLT-4 = test: Growth inhibition of human MOLT4 cells at 10 uM after 48 hrs by SRB assay relative to control; details: for inhibition of growth at 10 µM: MOLT-4, 48 h, read-out: GI
NCI-H522 = test: Growth inhibition of human NCI-H522 cells at 10 uM after 48 hrs by SRB assay relative to control; details: NCI-H522, 48 h, read-out: GI
NCI-H226 = test: Growth inhibition of human NCI-H226 cells at 10 uM after 48 hrs by SRB assay relative to control; details: for inhibition of growth at 10 µM: NCI-H226, 48 h, read-out: GI
SK-MEL-2 = test: Growth inhibition of human SK-MEL-2 cells at 10 uM after 48 hrs by SRB assay relative to control; details: for inhibition of growth at 10 µM: SK-MEL-2, 48 h, read-out: GI
MCF7 = test: Growth inhibition of human MCF7 cells at 10 uM after 48 hrs by SRB assay relative to control; details: MCF7, 48 h, read-out: GI
LOX IMVI = test: Growth inhibition of human LOXIMVI cells at 10 uM after 48 hrs by SRB assay relative to control; details: read-out: GI
MDA-MB-468 = test: Growth inhibition of human MDA-MB-468 cells at 10 uM after 48 hrs by SRB assay relative to control
Malme-3M = test: Growth inhibition of human MALME-3M cells at 10 uM after 48 hrs by SRB assay relative to control
RPMI-8226 = test: Growth inhibition of human RPMI8226 cells at 10 uM after 48 hrs by SRB assay relative to control; details: for inhibition of growth at 10 µM: RPMI-8226, 48 h, read-out: GI
OVCAR-3 = test: Growth inhibition of human OVCAR3 cells at 10 uM after 48 hrs by SRB assay relative to control
PC-3 = test: Growth inhibition of human PC3 cells at 10 uM after 48 hrs by SRB assay relative to control; details: PC-3, 48 h, read-out: GI
UACC-257 = test: Growth inhibition of human UACC257 cells at 10 uM after 48 hrs by SRB assay relative to control; details: for inhibition of growth at 10 µM: UACC-257, 48 h, read-out: GI
Hs-578T = test: Growth inhibition of human Hs 578T cells at 10 uM after 48 hrs by SRB assay relative to control
A549 = test: Growth inhibition of human A549 cells at 10 uM after 48 hrs by SRB assay relative to control; details: A549, 48 h, read-out: GI
NCI-H322M = test: Growth inhibition of human NCI-H322M cells at 10 uM after 48 hrs by SRB assay relative to control
UACC-62 = test: Growth inhibition of human UACC62 cells at 10 uM after 48 hrs by SRB assay relative to control; details: for inhibition of growth at 10 µM: UACC-62, 48 h, read-out: GI
SNB-75 = test: Growth inhibition of human SNB75 cells at 10 uM after 48 hrs by SRB assay relative to control; details: SNB-75, 48 h, read-out: GI
RXF 393 = test: Growth inhibition of human RXF393 cells at 10 uM after 48 hrs by SRB assay relative to control
CAKI-1 = test: Growth inhibition of human Caki1 cells at 10 uM after 48 hrs by SRB assay relative to control; details: CAKI-1, 48 h, read-out: GI
HCT-116 = test: Growth inhibition of human HCT116 cells at 10 uM after 48 hrs by SRB assay relative to control
U-251 = test: Growth inhibition of human U251 cells at 10 uM after 48 hrs by SRB assay relative to control; details: U-251, 48 h, read-out: GI
SNB-19 = test: Growth inhibition of human SNB19 cells at 10 uM after 48 hrs by SRB assay relative to control; details: for inhibition of growth at 10 µM: SNB-19, 48 h, read-out: GI
A498 = test: Growth inhibition of human A498 cells at 10 uM after 48 hrs by SRB assay relative to control; details: A498, 48 h, read-out: GI

SMILES	inhibition of growth at 10 µM (UO-31) [%]	growth inhibition (GI) (HL-60)	inhibition of growth at 10 µM (SF-268) [%]	inhibition of growth at 10 µM (NCI-H23) [%]	inhibition of growth at 10 µM (K562) [%]	inhibition of growth at 10 µM (SR) [%]	inhibition of growth at 10 µM (CCRF-CEM) [%]	inhibition of growth at 10 µM (HOP-92) [%]	growth inhibition (GI) (HT-29)	inhibition of growth at 10 µM (NCI-H522) [%]	inhibition of growth at 10 µM (MCF7) [%]	inhibition of growth at 10 µM (LOX IMVI) [%]	inhibition of growth at 10 µM (PC-3) [%]	growth inhibition (GI) (Hs-578T)	inhibition of growth at 10 µM (A549) [%]	inhibition of growth at 10 µM (SNB-75) [%]	growth inhibition (GI) (RXF 393)	inhibition of growth at 10 µM (CAKI-1) [%]	inhibition of growth at 10 µM (U-251) [%]	inhibition of growth at 10 µM (A498) [%]	other results
COc1ccc(Cc2nnc3sc(SC)nn23)cc1	12.7	inactive	2.15	5.4	3.47	7.53	5.04	13.4	inactive	12.2	8.21	2.73	2.19	inactive	4.46	8.34	inactive	4.37	3.17	3.37	growth inhibition (GI) (786-0): inactive; growth inhibition (GI) (OVCAR-8): inactive; growth inhibition (GI) (OVCAR-4): inactive; growth inhibition (GI) (NCI/ADR-RES): inactive; growth inhibition (GI) (HOP-62): inactive; growth inhibition (GI) (SK-MEL-5): inactive; growth inhibition (GI) (SK-OV-3): inactive; growth inhibition (GI) (KM12): inactive; growth inhibition (GI) (MOLT-4): inactive; inhibition of growth at 10 µM (NCI-H226): 4.76%; inhibition of growth at 10 µM (SK-MEL-2): 14.7%; growth inhibition (GI) (MDA-MB-468): inactive; growth inhibition (GI) (Malme-3M): inactive; inhibition of growth at 10 µM (RPMI-8226): 1.21%; growth inhibition (GI) (OVCAR-3): inactive; inhibition of growth at 10 µM (UACC-257): 9.07%; growth inhibition (GI) (NCI-H322M): inactive; growth inhibition (GI) (UACC-62): inactive; growth inhibition (GI) (HCT-116): inactive; growth inhibition (GI) (SNB-19): inactive
COc1ccc(Cc2nnc3sc(SCc4ccccc4)nn23)cc1	20.6	inactive	2.02	7.22	12.4	12.9	25.1	27.6	inactive	16.8	5.28	15.8	6	inactive	3.43	11	inactive	5.66	2.8	19.7	inhibition of growth at 10 µM (786-0; 786-0, 48 h, read-out: GI): 6.46%; growth inhibition (GI) (OVCAR-8): inactive; inhibition of growth at 10 µM (OVCAR-4): 8.58%; inhibition of growth at 10 µM (NCI/ADR-RES): 3.11%; growth inhibition (GI) (HOP-62): inactive; growth inhibition (GI) (SK-MEL-5): inactive; inhibition of growth at 10 µM (SK-OV-3): 1.1%; inhibition of growth at 10 µM (KM12): 6%; inhibition of growth at 10 µM (MOLT-4): 11.6%; inhibition of growth at 10 µM (NCI-H226): 14%; growth inhibition (GI) (SK-MEL-2): inactive; growth inhibition (GI) (MDA-MB-468): inactive; growth inhibition (GI) (Malme-3M): inactive; inhibition of growth at 10 µM (RPMI-8226): 2.01%; growth inhibition (GI) (OVCAR-3): inactive; growth inhibition (GI) (UACC-257): inactive; growth inhibition (GI) (NCI-H322M): inactive; growth inhibition (GI) (UACC-62): inactive; inhibition of growth at 10 µM (HCT-116; HCT-116, 48 h, read-out: GI): 1.27%; inhibition of growth at 10 µM (SNB-19): 10.6%
COc1ccc(Cc2nnc(SCC(=O)c3ccc(C)cc3)n2-c2ccccc2)cc1	30.2	inactive	3.62	7	7.62	7.61	5.01	14.3	inactive	19	14.6	2	20.7	inactive	17.5	8.11	inactive	7.83	4.09	26	growth inhibition (GI) (786-0): inactive; inhibition of growth at 10 µM (OVCAR-8; OVCAR-8, 48 h, read-out: GI): 1.78%; inhibition of growth at 10 µM (OVCAR-4): 1.87%; inhibition of growth at 10 µM (NCI/ADR-RES): 16.6%; inhibition of growth at 10 µM (HOP-62): 6.7%; inhibition of growth at 10 µM (SK-MEL-5; SK-MEL-5, 48 h, read-out: GI): 3.36%; inhibition of growth at 10 µM (SK-OV-3): 13.9%; inhibition of growth at 10 µM (KM12): 4.22%; inhibition of growth at 10 µM (MOLT-4): 9.02%; inhibition of growth at 10 µM (NCI-H226): 2.21%; inhibition of growth at 10 µM (SK-MEL-2): 23%; inhibition of growth at 10 µM (MDA-MB-468; MDA-MB-468, 48 h, read-out: GI): 19.3%; inhibition of growth at 10 µM (Malme-3M; read-out: GI): 5.45%; growth inhibition (GI) (RPMI-8226): inactive; inhibition of growth at 10 µM (OVCAR-3; OVCAR-3, 48 h, read-out: GI): 4.05%; inhibition of growth at 10 µM (UACC-257): 7.67%; inhibition of growth at 10 µM (NCI-H322M; read-out: GI): 8.17%; inhibition of growth at 10 µM (UACC-62): 14%; growth inhibition (GI) (HCT-116): inactive; inhibition of growth at 10 µM (SNB-19): 4.85%
COc1ccc(Cc2nnc(SCC(=O)Nc3ccc(C)cc3)n2-c2ccc(C)cc2)cc1	31.3	inactive	4.43	2	26.4	12.8	7.21	17.5	inactive	13.1	3	2.4	32.4	inactive	1.85	1.89	inactive	1.24	2	46.2	growth inhibition (GI) (786-0): inactive; growth inhibition (GI) (OVCAR-8): inactive; growth inhibition (GI) (OVCAR-4): inactive; inhibition of growth at 10 µM (NCI/ADR-RES): 5.55%; inhibition of growth at 10 µM (HOP-62): 1.2%; growth inhibition (GI) (SK-MEL-5): inactive; inhibition of growth at 10 µM (SK-OV-3): 12%; inhibition of growth at 10 µM (KM12): 8.1%; inhibition of growth at 10 µM (MOLT-4): 39.5%; growth inhibition (GI) (NCI-H226): inactive; inhibition of growth at 10 µM (SK-MEL-2): 6.19%; growth inhibition (GI) (MDA-MB-468): inactive; growth inhibition (GI) (Malme-3M): inactive; inhibition of growth at 10 µM (RPMI-8226): 10%; growth inhibition (GI) (OVCAR-3): inactive; growth inhibition (GI) (UACC-257): inactive; growth inhibition (GI) (NCI-H322M): inactive; inhibition of growth at 10 µM (UACC-62): 4.65%; growth inhibition (GI) (HCT-116): inactive; inhibition of growth at 10 µM (SNB-19): 3.42%

From ChEMBL document CHEMBL4190322, “Structure-based development of novel triazoles and related thiazolotriazoles as anticancer agents and Cdc25A/B phosphatase inhibitors. Synthesis, in vitro biological evaluation, molecular docking and in silico ADME-T studies” (Eur J Med Chem, 2017)
